Experiments:
[1] = Nanoindentation test of the newly regenerated layer (modulus, hardness); design: species or system Human; conditions: for mechanical properties of the newly formed layer compared with healthy dentin: peptide only treatment; for surface hardness of dentin lesions: peptide only, 5 days
Description: Human third molars were sectioned transversally into 2 mm thick slices at the mid-coronal region of the tooth. A window of sound dentin measuring 2×2 mm each was delineated by applying two coats of acid-resistant nail varnish on the tooth surfaces. To mimic carious lesions, the samples were immersed in a demineralizing solution (pH 4.6, 30 ml) at 37° C. for 3 days. Twenty μl of peptide only (LRAP, P32, P26) and peptide-chitosan hydrogel (200 μg/ml) were applied separately on the demineralized windows (2 applications: Days 1 & 5) and the tooth slices were immersed in artificial saliva (pH 7, 5 ml) at 37° C. for 5 and 10 days. The artificial saliva includes 1.2 mM Ca^2+, 0.2 mM Mg^2+ 0.7 mM H2PO4^−, 16 mM KCl, 4.5 mM NH4Cl and 50 mM Hepes in water. The artificial saliva solution (5 ml) was changed daily from days 1-10.
FIGS. 18A, 18B, 18C, and 18D provide nanoindentation test results showing changes in the modulus (A,B) and hardness (C, D) of the newly regenerated layer after being treated with peptide only and peptide-chitosan hydrogel for 5 and 10 days. Treatment with LRAP and P32 restored surface hardness of dentin lesions in 5 days.

[2] = TEM of peptide self-assembly; assay type: physicochemical; conditions: pH 7.4, HEPES buffer, 25° C.
Excerpt: (Ref: doi:10.1016/j.jsb.2011.07.016).

## MPLPPHPGHPGYINFSYEVLTPLKWYQSIRPPPLPPMLPDLTLEAWPSTDKTKREEVD (listed as Homo sapiens) [LRAP, leucine rich amelogenin polypeptide, alternatively spliced isoform of amelogenin]
[1]
  mechanical properties of the newly formed layer compared with healthy dentin: superior mechanical properties than healthy dentin
  surface hardness of dentin lesions: restored

## MPLPSYEVLTPLKWPVHPMQPSTDKTKREEVD (Amelogenin-derived polypeptide) [Peptide P32, Artificial amelogenin-derived polypeptide]
[2]
  TEM assembly morphology: uniformly-dispersed spherical assemblies
[1]
  mechanical properties of the newly formed layer compared with healthy dentin: superior mechanical properties than healthy dentin
  surface hardness of dentin lesions: restored
